Measured values: US20030113330A1, “Methods for treating pulmonary fibrosis” (priority 1999, published 2003)
Where two headings read alike, the source gives them in different places.

How the values were obtained:
primary rat AECs = assay: TNF-α-induced apoptosis of primary rat AECs; type: cell-based; conditions: purified TNF-α
primary rat AEC [1] = assay: Fas ligand-induced apoptosis of primary rat alveolar epithelial cells; type: cell-based; conditions: captopril, lisinopril 500 ng/ml; caspase inhibitors 60 uM
Description: Lung Cell Isolation and Detection of Apoptosis In Vitro. Primary alveolar epithelial cells (AEC) were isolated from adult male Wistar rats as described above. The primary cells were studied at day two of culture, a time at which they are type II cell-like by accepted morphologic and biochemical criteria, see Paine et al., Am. J. Physiol. […] All cells were seeded in 24-well or 6-well chambers, and all experiments were conducted at subconfluent densities of 80-90% in serum-free Ham's F12 medium. Test reagents were diluted with Ham's F12 medium and were applied for 20 hours at 37° C. in a 5% CO2 incubator.
Detection of apoptotic cells with propidium iodide (PI) was conducted as described above, following digestion of ethanol-fixed cells with DNAse-free RNAse in PBS containing 5 ug/ml PI.
Expression of FAS by alveolar epithelial cells is observed during bleomycin-induced fibrogenesis in mice. See Hagimoto, et al., Am. J. Respir. Cell Mol. Biol. 16:91-101 (1997). […] Apoptosis was detected by quantitation of fragmented nuclei (see above).
Cell Culture and Detection of Apoptosis. The human lung adenocarcinoma cell line A549 was obtained from American Type Culture Collection and cultured in Ham's F12 medium supplemented with 10% fetal bovine serum (FBS). Primary alveolar epithelial cells were isolated from adult male Wistar rats as described earlier (Uhal, B. D., I. Joshi, A. True, S. Mundle, A. Raza, A. Pardo and M. Selman. Fibroblasts isolated after fibrotic lung injury induce apoptosis of alveolar epithelial cells in vitro. Am. J. Physiol. 269:L819-L828, 1995); Wang, R., A. Zagariya, 0. Ibarra-Sunga, C. […] Am. J. Physiol. 276:L885-L889 (1999)). […] All cells were seeded in 24-well or 6-well chambers, and all experiments were conducted at subconfluent densities of 80-90% in serum-free Ham's F12 medium. Test reagents were diluted with serum-free Ham's F12 medium and were applied under serum-free conditions for 20 hours at 37C. in a 5% CO2 incubator. Detection of apoptotic cells with propidium iodide (PI) was conducted as described above Am. J. Physiol. 275:L1013-1017 (1998); Uhal et al., following digestion of ethanol-fixed cells with DNAse-free RNAse in PBS containing 5 μg/ml PI. In all assays, detached cells were retained by centrifugation of the culture vessels during fixation with 70% ethanol, or by retention of culture media and recovery by centrifugation before assay.
Apoptosis was detected by nuclear fragmentation as described above.

primary rat AEC [2] = assay: Angiotensin II-induced apoptosis in primary rat AEC (nuclear fragmentation, PI); type: cell-based; conditions: ANGII 5.0 uM; saralasin 50 ug/ml, lisinopril 500 ng/ml
Source text: Cell Culture. The human lung adenocarcinoma cell line A549 was obtained from American Type Culture Collection and cultured in Ham's F12 medium supplemented with 10% fetal bovine serum (FBS). Primary alveolar epithelial cells were isolated from adult male Wistar rats as described in Uhal et al., Am. J. Physiol. Suppl. (Oct.) 261:110-117 (1991) and Uhal et al., Am. J. Physiol. 269:L819-L828 (1995). The primary cells were studied at day two of culture, a time at which they are type II cell-like by accepted morphologic and biochemical criteria, see Uhal, Am. J. Physiol. 272:L1031-L1045 (1997). […] J. Physiol. Suppl. (October) 261:110-117 (1991). All cells were seeded in 24-well or 6-well chambers, and all experiments were conducted at subconfluent densities of 80-90% in serum-free Ham's F12 medium. Test reagents were diluted with Ham's F12 medium and were applied for 20 h at 37° C. in a 5% CO2 incubator.
Detection of Apoptosis. Detection of apoptotic cells with propidium iodide (PI) was conducted as described in Uhal, et al., Am. J. Physiol. 275:L1013-1017 (1998) following digestion of ethanol-fixed cells with DNAse-free RNAse in PBS containing 5 ug/ml PI. Assay of Annexin V binding by flow cytometry was performed essentially as described for human lung fibroblasts in Uhal, et al., Am. J. Physiol. 275:L998-L1005 (1998) after trypsinization of cells from culture vessels. Assay of Caspase-3 activity was performed on viable suspension cultures as reported in Uhal, et al., Am. J. Physiol. 275:L1013-1017 (1998). In all assays, detached cells were retained by centrifugation of the culture vessels during fixation with 70% ethanol, or by retention of culture media and recovery by centrifugation before assay.
(§1) For microscopy, cells were cultured on glass cover slips, incubated with test reagents and fixed with 70% ethanol. The fixed cells were immunolabeled overnight at 4° C. with monoclonal antibodies to cytokeratins 7 and 19 (Chemicon International, Temecula, Calif.), and then for one hour at 37° C. with anti-mouse IgG-rhodamine and DNAse-free RNAse (Boehringer Mannheim, Indianapolis, Ind.) The cover slips were then rinsed in distilled water three times and mounted under Fluoromount Solution (Southern Biotechnology Associates, Birmingham, Ala.) containing 5 ug/ml propidium iodide. Photomicroscopy was performed as described in Uhal, et al., Am. J. Physiol. 275:L1013-1017 (1998).
Apoptosis in alveolar epithelial cells was quantitated by fluorescence detection of chromatin condensation and nuclear fragmentation in alcohol-fixed cells stained with propidium iodide. See Uhal, et al., Am. J. Physiol. 275:L1013-1017 (1998). […] After 20 h, the culture vessel was centrifuged to retain detached cells and labeled with anticytokeratin antibodies and propidium iodide. […] Double labeling with PI and monoclonal antibodies to cytokeratins 7 and 19 identified cells with both apoptotic nuclear morphology and positive anticytokeratin immunoreactivity.

A549 cells [3] = tested on: A549 cells
Description: (§2) The human lung adenocarcinoma cell line A549 (ATCC) was cultured in Ham's F12 medium supplemented with 10% fetal bovine serum (FBS). Primary alveolar epithelial cells were isolated from adult male Wistar rats. The primary cells were studied at day two of culture, a time at which they are type II cell-like by accepted morphologic and biochemical criteria. […] All cells were seeded in 24-well or 6-well chambers, and all experiments were conducted at subconfluent densities of 80-90% in serum-free Ham's F12 medium. Test reagents were diluted with Ham's F12 medium and were applied for 20 hours at 37C. in a 5% CO2 incubator.
(§3) Apoptotic cells were detected using propidium iodide (PI) following digestion of ethanol-fixed cells with DNAse-free RNAse in PBS containing 5 ug/ml PI. […] In replicate culture vessels, necrosis was detected as the loss of exclusion of PI after application of the vital dye directly to the cell culture medium at 5 ug/ml final concentration. Red fluorescent (PI-POSITIVE) cells (>570 nm) were scored over the subsequent hour as a percentage of the total cells in any given field. A minimum of 4 separate fields were scored in each of three separate culture vessels per experiment condition; all experiments were performed at least twice and the data were compiled. Although all necrotic cells are PI-positive, some apoptotic cells may also take up the dye but these comprise a minor fraction of the total dead cell population.
(§4) In all assays, detached cells were retained by centrifugation of the culture vessel at 300×g for 10 minutes with a centrifuge rotor designed for culture plates. For detection of necrosis (dye exclusion of PI), the PI was added directly to the cell culture medium immediately before centrifugation of the culture vessel. For detection of apoptosis, ethanol was added directly to the cell culture medium to a final concentration of 70% immediately before the centrifugation. Afterward, the ethanol was carefully removed and the total cell population (attached plus sedimented detached cells) were stained with PI as described above.

primary rat AEC [4] = tested on: primary rat AEC
Description: as §2, §3, §4

human A549 cells = type: cell-based
Description: (§5) The human lung adenocarcinoma cell line A549 (ATCC) was cultured in Ham's F12 medium supplemented with 10% fetal bovine serum (FBS). Primary alveolar epithelial cells were isolated from adult male Wistar rats. The primary cells were studied at day two of culture, a time at which they are type II cell-like by accepted morphologic and biochemical criteria. All primary cell preparations were of better than 90% purity assessed by acridine orange staining. All cells were seeded in 24-well or 6-well chambers, and all experiments were conducted at subconfluent densities of 80-90% in serum-free Ham's F12 medium. Test reagents were diluted with Ham's F12 medium and were applied for 20 hours at 37C. in a 5% CO2 incubator.
Apoptotic cells were detected using propidium iodide (PI) following digestion of ethanol-fixed cells with DNAse-free RNAse in PBS containing 5 ug/ml PI. […] In replicate culture vessels, necrosis was detected as the loss of exclusion of PI after application of the vital dye directly to the cell culture medium at 5 ug/ml final concentration. Red fluorescent (PI-POSITIVE) cells (>570 nm) were scored over the subsequent hour as a percentage of the total cells in any given field. A minimum of 4 separate fields were scored in each of three separate culture vessels per experiment condition; all experiments were performed at least twice and the data were compiled. […]

[5] = tested on: primary cultures of rat AEC; type: cell-based; conditions: 20 h
Description: as §5

A549 cells [6] = assay: Amiodarone-induced net cell loss in A549 cultures; type: cell-based, human; conditions: 20 hours exposure
Description: (§6) Primary alveolar epithelial cells were isolated from adult male Wistar rats. The primary cells were studied at day two of culture, a time at which they are type II cell-like by accepted morphologic and biochemical criteria. All primary cell preparations were of better than 90% purity assessed by acridine orange staining. All cells were seeded in 24-well or 6-well chambers, and all experiments were conducted at subconfluent densities of 80-90% in serum-free Ham's F12 medium. Test reagents were diluted with Ham's F12 medium and were applied for 20 hours at 37C. in a 5% CO2 incubator.
(§7) Importantly, unattached cells were recovered and included in the analyses, and thus the data represent true loss of cells rather than simple detachment from the substratum.

primary rat AEC [7] = assay: Amiodarone-induced net cell loss in primary rat AEC cultures; type: cell-based; conditions: 20 hours exposure
Description: as §6, §7

[8] = AIPT; cited from earlier work
primary rat AEC [9] = assay: Angiotensinogen-induced apoptosis in primary rat AEC; type: cell-based; conditions: 5 uM
Description: Cell Culture. […] J. Physiol. Suppl. […] J. Physiol. […] J. Physiol. […] J. Physiol. Suppl.
Detection of Apoptosis. […] J. Physiol. […] Assay of Annexin V binding by flow cytometry was performed essentially as described for human lung fibroblasts in Uhal, et al., Am. J. Physiol. […] Assay of Caspase-3 activity was performed on viable suspension cultures as reported in Uhal, et al., Am. J. Physiol.
as §1, with “Physiol.” for “Physiol. 275:L1013-1017 (1998).”

A549 cell line = assay: Angiotensinogen-induced apoptosis in A549 cells; type: cell-based, human
Description: Cell Culture. […] J. Physiol. Suppl. (Oct.) 261:110-117 (1991) and Uhal et al., Am. J. Physiol. 269:L819-L828 (1995). […] J. Physiol. 272:L1031-L1045 (1997). […] J. Physiol. Suppl. (October) 261:110-117 (1991).
Detection of Apoptosis. […] J. Physiol. […] Assay of Annexin V binding by flow cytometry was performed essentially as described for human lung fibroblasts in Uhal, et al., Am. J. Physiol. 275:L998-L1005 (1998) after trypsinization of cells from culture vessels. Assay of Caspase-3 activity was performed on viable suspension cultures as reported in Uhal, et al., Am. J. Physiol. 275:L1013-1017 (1998).
as §1

Molecule: CCCCc1nc(Cl)c(CO)n1Cc1ccc(-c2ccccc2-c2nn[nH]n2)cc1 [Losartan, losartan]
- inhibition of TNF-α-induced apoptosis (primary rat AECs): abrogated
- inhibition of Fas ligand-induced apoptosis of primary rat AEC (words) (primary rat AEC [1]): abrogated
- inhibition of ANGII-induced apoptosis of primary rat AEC (primary rat AEC [2]): abrogated
- inhibition of amiodarone-induced apoptosis (A549 cells [3]; captopril 500 ng/ml, saralasin 50 ug/ml, Losartan 5 pg/ml): completely blocked
- inhibition of amiodarone-induced apoptosis (primary rat AEC [4]; captopril 500 ng/ml, saralasin 50 ug/ml, Losartan 5 pg/ml, amiodarone 2.5 ug/ml for chelerythrine, orthovanadate): completely blocked

Molecule: CCCCc1oc2ccccc2c1C(=O)c1cc(I)c(OCCN(CC)CC)c(I)c1 [amiodarone]
- concentration at which necrosis / significant cell death begins (human A549 cells; A549, 20 h): 10000 ng/mL
- concentration at which significant cell death / toxicity begins ([5]; primary rat AEC): 2500 ng/mL
- concentration at which significant cell death / toxicity begins ([5]; primary rat AEC, listed as AM): 1000 ng/mL
- effect on total cell number (A549 cells [6]): significantly decreased
- effect on total cell number (primary rat AEC [7]): significantly decreased
- maximum increase in apoptotic cells (A549 cells [3]; 10 ug/ml AM, 5 ug/ml DES): 10 fold
- concentration at which apoptosis begins (A549 cells [3]; A549): 10000 ng/mL
- induction of apoptosis (primary rat AEC [4]; 15 ug/ml AM, 5 ug/ml DES): 16 fold
- concentration at which significant apoptosis begins (primary rat AEC [4]; primary AEC): 2500 ng/mL
- estimated mortality of affected patients [8]: 5 to 10%

Molecule: CCCCc1oc2ccccc2c1C(=O)c1cc(I)c(OCCNCC)c(I)c1 [desethylamiodarone]
- concentration at which necrosis / significant cell death begins (human A549 cells; human, 20 h): 5000 ng/mL
- concentration at which significant cell death / toxicity begins ([5]; male, Wistar, rat): 100 ng/mL
- cytotoxicity at the higher doses ([5]; male, Wistar, rat): ~100%
- effect on total cell number (A549 cells [6]): significantly decreased
- effect on total cell number (primary rat AEC [7]): significantly decreased
- concentration at which apoptosis begins (A549 cells [3]; human, 20 h): 5000 ng/mL
- concentration at which significant apoptosis begins (primary rat AEC [4]; male, Wistar, rat, 20 h): 2500 ng/mL

B1: angiotensinogen: purified angiotensinogen, serum globulin precursor of angiotensin I (protein, UniProt P01019 25-476, looked up)
Angiotensinogen: DRVYIHPFHLVIHNESTCEQLAKANAGKPKDPTFIPAPIQAKTSPVDEKALQDQLVLVAAKLDTEDKLRAAMVGMLANFLGFRIYGMHSELWGVVHGATVLSPTAVFGTLASLYLGALDHTADRLQAILGVPWKDKNCTSRLDAHKVLSALQAVQGLLVAQGRADSQAQLLLSTVVGVFTAPGLHLKQPFVQGLALYTPVVLPRSLDFTELDVAAEKIDRFMQAVTGWKTGCSLMGASVDSTLAFNTYVHFQGKMKGFSLLAEPQEFWVDNSTSVSVPMLSGMGTFQHWSDIQDNFSVTQVPFTESACLLLIQPHYASDLDKVEGLTFQQNSLNWMKKLSPRTIHLTMPQLVLQGSYDLQDLLAQAELPAILHTELNLQKLSNDRIRVGEVLNSIFFELEADEREPTESTQQLNKPEVLEVTLNRPFLFAVYDQSATALHFLGRVANPLSTA
- induction of apoptosis by angiotensinogen (primary rat AEC [9]): induced apoptosis with the same potency as did ANGII
- induction of apoptosis by angiotensinogen (A549 cell line): not capable of inducing apoptosis
